Results on 20 compounds are retold here after ChEMBL document CHEMBL1221353, “Synthesis and evaluation of amides surrogates of dopamine D3 receptor ligands” (Bioorg Med Chem Lett, 2010).

Each structure is given as a SMILES string.

The species entered for series [1] is Homo sapiens. Description: Selectivity ratio of Ki for human adrenergic alpha1A receptor to Ki for human dopamine D3 receptor.
Series [2] has as its target D(3) dopamine receptor (Homo sapiens, UniProt P35462). Kind of series: biochemical.
Description: Displacement of [3H]spiperone from human dopamine D3 receptor expressed in CHO cells
Series [3] addresses D(2) dopamine receptor (Homo sapiens, UniProt P14416). Description: Displacement of [3H]spiperone from human dopamine D2S receptor expressed in HEK293 cells. Type of series: cell-based.
The target of series [4] is T1, Alpha-1A adrenergic receptor (Homo sapiens, UniProt P35348).
T1 sequence (P35348 whole entry): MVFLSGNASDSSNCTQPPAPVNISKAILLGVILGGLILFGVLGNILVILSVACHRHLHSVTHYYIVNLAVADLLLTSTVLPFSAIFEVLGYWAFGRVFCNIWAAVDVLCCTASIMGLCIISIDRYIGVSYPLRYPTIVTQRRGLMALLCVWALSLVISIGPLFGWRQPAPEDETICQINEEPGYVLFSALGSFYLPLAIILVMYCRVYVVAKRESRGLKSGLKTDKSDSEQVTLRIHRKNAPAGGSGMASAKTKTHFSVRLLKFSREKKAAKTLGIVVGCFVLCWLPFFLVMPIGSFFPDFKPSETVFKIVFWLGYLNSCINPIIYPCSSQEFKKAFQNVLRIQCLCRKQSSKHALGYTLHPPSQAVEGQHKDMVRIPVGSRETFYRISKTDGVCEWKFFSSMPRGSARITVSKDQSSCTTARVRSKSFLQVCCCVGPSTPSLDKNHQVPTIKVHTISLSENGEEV
Kind of series: Displacement of [3H]prazosin from human adrenergic alpha1A receptor. A general note: Displacement assays read how much labelled ligand stays bound in the presence of the test substance.

Series [5] is filed under the species Homo sapiens. Kind of series: Selectivity ratio of Ki for human dopamine D2S receptor to Ki for human dopamine D3 receptor.
Series [6] deals with Rattus norvegicus. Kind of series: Absolute bioavailability in rat plasma at 10 mg/kg, po and 3 mg/kg, iv. Type of series: ADME, organism-based. The settings on record: in vivo.
For series [7], the system named is Mus musculus. Description: Absolute bioavailability in mouse plasma at 10 mg/kg dose po and iv. The series is classed as ADME, organism-based. To be noted: in vivo.

Chain of D(2) dopamine receptor (P14416 whole entry): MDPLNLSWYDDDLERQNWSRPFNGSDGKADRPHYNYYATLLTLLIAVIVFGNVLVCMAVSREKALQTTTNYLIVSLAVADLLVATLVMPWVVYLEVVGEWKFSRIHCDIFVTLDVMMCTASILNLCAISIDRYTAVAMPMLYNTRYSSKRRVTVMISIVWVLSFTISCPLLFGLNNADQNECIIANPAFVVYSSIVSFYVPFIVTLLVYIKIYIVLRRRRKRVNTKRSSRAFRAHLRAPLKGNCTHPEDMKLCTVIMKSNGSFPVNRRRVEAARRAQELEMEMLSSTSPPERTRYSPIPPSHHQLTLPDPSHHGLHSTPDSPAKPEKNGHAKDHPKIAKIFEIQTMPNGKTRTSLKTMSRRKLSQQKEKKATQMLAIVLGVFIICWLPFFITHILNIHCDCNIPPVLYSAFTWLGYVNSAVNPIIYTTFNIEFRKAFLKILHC
Chain of D(3) dopamine receptor (P35462 whole entry): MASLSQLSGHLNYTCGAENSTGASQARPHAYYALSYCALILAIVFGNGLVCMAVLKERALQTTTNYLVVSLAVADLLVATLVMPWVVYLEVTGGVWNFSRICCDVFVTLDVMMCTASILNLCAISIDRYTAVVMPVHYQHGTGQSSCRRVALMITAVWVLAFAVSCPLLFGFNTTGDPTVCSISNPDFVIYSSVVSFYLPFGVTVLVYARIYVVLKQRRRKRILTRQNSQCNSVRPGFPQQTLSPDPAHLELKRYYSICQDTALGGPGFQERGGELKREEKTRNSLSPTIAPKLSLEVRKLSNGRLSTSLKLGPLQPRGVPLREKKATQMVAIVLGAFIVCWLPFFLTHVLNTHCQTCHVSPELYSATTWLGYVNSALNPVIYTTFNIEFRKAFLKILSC

What is called Ki is a dissociation constant, usually derived from enzyme kinetics or from competition with a known ligand. A higher Ki goes with lower affinity. Consider `Cc1ccccc1N1CCN(CCCCNc2ccccn2)CC1`, for which the values for the Ratio Ki in series [1] and in series [5] were 0.4 and 12, respectively. Also, the Ki in series [2] is 32 nM; in series [3] it was 383 nM; in series [4] it was 14 nM.
For the compound `Clc1cccc(N2CCN(CCCCNc3nccc4ccccc34)CC2)c1Cl`, the inhibition constant (Ki) in series [4] is 60 nM.
As to `COc1ccccc1N1CCN(CCCCNc2nccc3ccccc23)CC1`, the Ratio Ki in series [1] came to 6.3; in series [5] it was 70. Moreover, the inhibition constant (Ki) in series [2] is 1 nM; in series [3], 70 nM; in series [4], 6 nM.
The like results for `FC(F)(F)c1cccc(N2CCN(CCCCNc3nc(-c4ccccc4)cs3)CC2)c1` were, in that order, 5.4, 183, 13 nM, 2430 nM and 72 nM.
The like results for `FC(F)(F)c1cccc(N2CCN(CCCCNc3ccccn3)CC2)c1` were, in that order, 35, 12, 17 nM, 198 nM and 593 nM.
For `Fc1ccccc1N1CCN(CCCCNc2ccc(-c3ccccc3)cn2)CC1`, in that order: 4, 49, 2.5 nM, 122 nM and 10 nM.
Regarding `COc1ccccc1N1CCN(CCCCNc2ccccn2)CC1`, the Ratio Ki in series [1] was 29; in series [5], 247. Also, the Ki was 0.8 nM in series [2], 198 nM in series [3] and 23 nM in series [4].
`FC(F)(F)c1cccc(N2CCN(CCCCNc3ccc(-c4ccccc4)cn3)CC2)c1`: the Ratio Ki was found to be 207 in series [1] and 130 in series [5]. The values for the Ki in series [2], in series [3] and in series [4] were 1.1 nM, 143 nM and 227 nM, respectively.
The like results for `Clc1cccc(N2CCN(CCCCNc3ccc(-c4ccccc4)cn3)CC2)c1Cl` were, in that order, 35, 69, 0.59 nM, 41 nM and 21 nM.
Turning to `Fc1ccccc1N1CCN(CCCCNc2cc(-c3ccccc3)ccn2)CC1`, the Ratio Ki in series [1] is 6; in series [5], 206. The values for the inhibition constant Ki in series [2], in series [3] and in series [4] were 1.5 nM, 309 nM and 9 nM, respectively.
In series [4], `Clc1cccc(N2CCN(CCCCNc3ccccn3)CC2)c1Cl` showed a Ki of 33 nM.
Regarding `Clc1cccc(N2CCN(CCCCNc3cc(-c4ccccc4)ccn3)CC2)c1Cl`, the Ratio Ki in series [1] was 106; in series [5], 334. Besides, the results for the inhibition constant Ki in series [3] and in series [4] were 184 nM and 58 nM, respectively.
As for `COc1ccccc1N1CCN(CCCCNc2ccc3ccccc3n2)CC1`, the Ki in series [4] came to 6 nM.
For the compound `Cc1cccc(N2CCN(CCCCNc3ccccn3)CC2)c1C`, the Ratio Ki is 3 in series [1] and 17 in series [5]. The Ki in series [2] was 12 nM; in series [3], 207 nM; in series [4], 40 nM.
On to `FC(F)(F)c1cccc(N2CCN(CCCCNc3nccc4ccccc34)CC2)c1`, for which the Ratio Ki in series [1] was 68; in series [5] it was 58. For the same compound, the figures for the Ki in series [2], in series [3] and in series [4] were 1 nM, 58 nM and 68 nM, respectively.
In the case of `Clc1cccc(N2CCN(CCCCNc3ccc4ccccc4n3)CC2)c1Cl`, the Ratio Ki in series [1] was 77; in series [5] it was 39. The Ki in series [2] was 0.6 nM; in series [3] it was 23 nM; in series [4], 46 nM.
`FC(F)(F)c1cccc(N2CCN(CCCCNc3ncc(-c4ccccc4)o3)CC2)c1`: the Ratio Ki in series [1] was determined as 28; in series [5], 242. The Ki in series [2] was 9.6 nM; in series [3] it was 2320 nM; in series [4] it was 272 nM.
For `Fc1ccccc1N1CCN(CCCCNc2ccccn2)CC1`, in that order: 1.5, 12, 11 nM, 133 nM and 17 nM.
As for `FC(F)(F)c1cccc(N2CCN(CCCCNc3cc(-c4ccccc4)ccn3)CC2)c1`, the Ratio Ki in series [1] amounted to 157; in series [5], 256. Also, the bioavailability came to 0.65 in series [6] and 0.4 in series [7]. Besides, the Ki is 194 nM in series [3] and 119 nM in series [4].
Turning to `FC(F)(F)c1cccc(N2CCN(CCCCNc3ccc4ccccc4n3)CC2)c1`, the Ratio Ki in series [1] was determined as 7.5; in series [5], 33. Besides, the Ki in series [2] is 1.6 nM; in series [3] it was 53 nM; in series [4], 12 nM.
